“Also recorded” adds a separate entry of the source. Read-outs that look alike come from different tables or passages of the source.
Key:
[1] = test system: SARS-CoV-2 (2019-nCoV) virus; assay type: cell-based; settings: for Copy number of virus genome: 100TCID50, 48 hours, supernatant
rotavirus = settings: clinical trials; cited from earlier work
Vero-E6 cells = assay: Cytotoxicity test of drugs, CCK-8 kit; assay type: cell-based; settings: 48 hours; for Cell viability (% of vehicle control): Vero-E6 cells
Procedure: The cytotoxicity test of drugs was carried out by using CCK-8 kit (Beyotime). Specific steps were as follows:
(1) 1×10^4 Vero-E6 cells (ATCC) were inoculated in a 96-well plate and cultured at 37° C. for 8 hours.
(2) The drug was diluted with DMSO to an appropriate concentration of mother solution, and then diluted with MEM (purchased from Gibco company, Catalog No. 10370021) medium containing 2% FBS (purchased from Gibco company, Catalog No. 16000044) to the same concentration as that for the drug treatment. The original medium in the 96-well plate was discarded, 100 μL of the drug-containing MEM medium was taken and added to the cells, and three replicate wells were set for each concentration. A vehicle control (adding DMSO and medium to cells in wells, without adding drug) and a blank control (adding DMSO and medium to the wells, without cells) were set up. After the drug was added, the cells were cultured at 37° C. for 48 hours.
(3) 20 μL of CCK-8 solution (Beyotime) was added to the well to be tested, mixed gently without generating bubbles, and cultured subsequently at 37° C. for 2 hours. OD450 was read on a microplate reader (purchased from Molecular Devices, model: SpectraMax M5), and the cell viability was calculated:
Cell viability (%)=(A(drug treatment group)−A(blank control))/(A(vehicle control)−A(blank control))×100%
Wherein, A was the reading of the microplate reader.

influenza = settings: 600 mg twice daily for five days, adults and adolescents; cited from earlier work

CC(=O)Oc1ccccc1C(=O)Nc1ncc([N+](=O)[O-])s1 [nitazoxanide, 2-(acetyloxy)-N-(5-nitro-2-thiazolyl) benzamide]
Copy number of virus genome ([1]; 0.14 μM, Vero E6 cells): 820470664.5
Copy number of virus genome ([1]; 0.41 μM, Vero E6 cells): 363337006
Copy number of virus genome ([1]; 1.23 μM, Vero E6 cells): 76022948.5
Copy number of virus genome ([1]; 3.70 μM, Vero E6 cells): 21027512.5
Copy number of virus genome ([1]; 11.11 μM, Vero E6 cells): 5389366.5
Copy number of virus genome ([1]; 33.33 μM, Vero E6 cells): 1424671.5
Copy number of virus genome ([1]; 100 μM, Vero E6 cells): 1220444.5
Viral RNA load in the cells ([1]; Vero E6 cells, 48 hours after infection by SARS-CoV-2, FIG. 1(a)): can reduce the viral RNA load
Inhibition of replication of SARS-CoV-2 virus genome in the infected supernatant ([1]; at concentrations of 100 μM, 33 μM, 11.1 μM and 3.7 μM): could effectively inhibit the replication
Treatment of diarrhea in children caused by rotavirus infection (rotavirus): can effectively treat diarrhea
Cell viability (% of vehicle control) (Vero-E6 cells; 0.14 μM): 98.78 % of vehicle control
Cell viability (% of vehicle control) (Vero-E6 cells; 0.41 μM): 101.40 % of vehicle control
Cell viability (% of vehicle control) (Vero-E6 cells; 1.23 μM): 98.54 % of vehicle control
Cell viability (% of vehicle control) (Vero-E6 cells; 3.70 μM): 96.47 % of vehicle control
Cell viability (% of vehicle control) (Vero-E6 cells; 11.11 μM): 96.03 % of vehicle control
Cell viability (% of vehicle control) (Vero-E6 cells; 33.33 μM): 93.58 % of vehicle control
Cell viability (% of vehicle control) (Vero-E6 cells; 100 μM): 93.29 % of vehicle control
Toxic effect on the cells (cytotoxicity) (Vero-E6 cells; all test concentrations): no cytotoxicity was observed; also recorded: no toxic effect on the cells
Duration of common influenza (influenza): reduced the duration of common influenza

— patent US20230077704A1, “APPLICATION OF NITAZOXANIDE AND ACTIVE FORM THEREOF, TIZOXANIDE, IN TREATMENT OF SARS-COV-2 INFECTION” (priority 2020, published 2023)
